Source: patent publication US20240360194A1, “New Peptides as Potent and Selective GIP Receptor Agonists” (Sanofi, priority 2021, published 2024)
Numbered stars: 1 amine (or outer) side, 2 acyl side, 3 side chain; on linkers, the order of the positions; unused ones are H or OH. Square brackets hold non-standard residues; d marks the D form. Side chains are listed from the residue outwards. Ends that are not written are not given here. Peptide text beside a SMILES is read from it. * marks the point of attachment. C18 diacid = O=C(O)CCCCCCCCCCCCCCCCC(=O)*; γGlu = O=C(O)[C@H](CCC(=O)[*:2])N[*:1]; hLeu = CC(C)CC[C@H](N)C(=O)O; AEEA = NCCOCCOCC(=O)O; Aib = CC(C)(N)C(=O)O

Experiments:
[1] = biological target: T1, human GIP receptor (hGIPR) (Homo sapiens, UniProt P48546); assay: In vitro cellular cAMP assay for GIP receptor efficacy (HEK-293 cell line over-expressing receptor); assay type: cell-based; details: EC50 hGIPR 0.1% BSA, HEK-293, 0.1% BSA
T1 sequence (P48546 22-466): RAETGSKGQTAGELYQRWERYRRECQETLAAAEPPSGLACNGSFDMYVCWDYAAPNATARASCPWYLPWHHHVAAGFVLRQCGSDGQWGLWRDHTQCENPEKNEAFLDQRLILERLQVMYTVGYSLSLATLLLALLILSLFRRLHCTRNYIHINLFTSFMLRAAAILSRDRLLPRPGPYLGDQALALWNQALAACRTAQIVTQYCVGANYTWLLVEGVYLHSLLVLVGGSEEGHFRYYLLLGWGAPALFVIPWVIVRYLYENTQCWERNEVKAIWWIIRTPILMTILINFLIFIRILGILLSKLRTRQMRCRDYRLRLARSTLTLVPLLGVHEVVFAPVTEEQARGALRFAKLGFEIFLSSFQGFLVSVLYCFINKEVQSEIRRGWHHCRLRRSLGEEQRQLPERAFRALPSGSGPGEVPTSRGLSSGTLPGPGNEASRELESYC

[2] = Solubility assessment (UHPLC-UV of supernatant, target 10 mg/ml); assay type: physicochemical
Method in brief: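 Peptides at 10 mg/ml (purity-corrected) in 100 mM phosphate pH 7.4, optionally with 2.7 mg/ml m-cresol; gentle agitation 1 h, then 5° C. overnight (24 h). Supernatant after 15 min centrifugation at 2500 RCF quantified by UHPLC-UV, with sequence-based extinction coefficients.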

[3] = biological target: T1, human GIP receptor (hGIPR); assay: Binding assay, displacement of [125I]GIP from HEK-293 membranes over-expressing GIPR (SPA); details: [125I]GIP displacement
Method in brief: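 Membranes from HEK-293 cells over-expressing human GIPR or GLP-1R, isolated by homogenising, sonicating and ultracentrifuging at 100000×g into HEPES/EDTA/NaCl buffer with protease inhibitors, were used for binding.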

[4] = biological target: human GLP-1 receptor (hGLP-1R) (Homo sapiens, UniProt P43220); assay: In vitro cellular cAMP assay for GLP-1 receptor efficacy (HEK-293 cell line over-expressing receptor); assay type: cell-based; details: HEK-293, 0.1% BSA
human GLP-1 receptor (hGLP-1R), sequence (P43220 24-463): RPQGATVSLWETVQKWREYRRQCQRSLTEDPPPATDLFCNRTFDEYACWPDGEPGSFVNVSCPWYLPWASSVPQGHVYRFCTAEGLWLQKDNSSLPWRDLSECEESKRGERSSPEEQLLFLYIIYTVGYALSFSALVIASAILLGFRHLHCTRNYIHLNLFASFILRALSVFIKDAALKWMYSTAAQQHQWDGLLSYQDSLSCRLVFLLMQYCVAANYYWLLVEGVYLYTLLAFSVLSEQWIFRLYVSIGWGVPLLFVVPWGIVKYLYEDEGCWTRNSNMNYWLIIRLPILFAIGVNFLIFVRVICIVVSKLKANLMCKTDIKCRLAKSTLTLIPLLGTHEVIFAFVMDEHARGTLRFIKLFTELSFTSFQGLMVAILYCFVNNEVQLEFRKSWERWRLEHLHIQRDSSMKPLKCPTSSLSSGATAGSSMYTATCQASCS

human GIP receptor [5] = biological target: T2, human GIP receptor (Homo sapiens, UniProt P48546); assay: In vitro cellular cAMP assay for GIP receptor efficacy (human adipocytes); assay type: cell-based
T2 construct: human adipocytes endogenously expressing the human GIP receptor; host or cells: human preadipocytes (Lonza) differentiated to adipocytes
T2 sequence (P48546 22-466): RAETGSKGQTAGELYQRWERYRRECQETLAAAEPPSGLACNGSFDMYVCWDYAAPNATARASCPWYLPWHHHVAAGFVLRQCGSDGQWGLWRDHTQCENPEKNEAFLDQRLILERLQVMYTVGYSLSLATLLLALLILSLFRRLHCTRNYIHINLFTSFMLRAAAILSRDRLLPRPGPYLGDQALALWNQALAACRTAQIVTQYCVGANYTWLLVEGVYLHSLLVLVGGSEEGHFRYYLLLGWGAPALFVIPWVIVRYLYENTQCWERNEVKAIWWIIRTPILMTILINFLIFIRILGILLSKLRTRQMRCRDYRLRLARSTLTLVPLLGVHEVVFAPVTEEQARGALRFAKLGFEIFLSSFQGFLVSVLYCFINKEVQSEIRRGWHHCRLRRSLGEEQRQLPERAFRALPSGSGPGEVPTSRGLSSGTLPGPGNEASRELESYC
Method in brief: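 cAMP is read by HTRF (665/620 nm ratio, 1 h after reagents in lysis buffer) following 30 min compound exposure at room temperature. Cells are human preadipocyte-derived adipocytes, differentiated 6 days with insulin, dexamethasone, IBMX (200 μM), PPARγ agonist and L-thyroxine, seeded 5000 per well.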

human GIP receptor [6] = biological target: T3, human GIP receptor (human, UniProt P48546 22-466); assay: cell-based or functional assay
T3 sequence (looked up): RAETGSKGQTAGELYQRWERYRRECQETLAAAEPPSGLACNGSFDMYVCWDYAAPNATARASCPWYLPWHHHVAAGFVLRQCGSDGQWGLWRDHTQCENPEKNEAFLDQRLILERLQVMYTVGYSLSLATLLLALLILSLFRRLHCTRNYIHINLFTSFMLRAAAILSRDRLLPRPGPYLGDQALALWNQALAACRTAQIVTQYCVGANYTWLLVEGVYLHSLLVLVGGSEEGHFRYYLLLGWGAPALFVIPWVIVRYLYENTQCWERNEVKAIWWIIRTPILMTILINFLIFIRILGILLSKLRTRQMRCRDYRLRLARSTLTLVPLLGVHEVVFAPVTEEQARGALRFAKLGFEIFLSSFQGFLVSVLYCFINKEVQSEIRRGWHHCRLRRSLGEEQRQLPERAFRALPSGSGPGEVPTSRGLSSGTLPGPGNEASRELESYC

human GIP receptor [7] = biological target: T3, human GIP receptor; assay: cell-based or functional assay; remark: listed apart in the source
human GLP-1 receptor = human GLP-1 receptor (human, UniProt P43220 24-463); assay: cell-based or functional assay

CC[C@H](C)[C@H](NC(=O)[C@H](Cc1ccccc1)NC(=O)[C@H](CCC(=O)O)NC(=O)[C@H](CCC(=O)O)NC(=O)[C@H](CCC(N)=O)NC(=O)[C@H](Cc1c[nH]cn1)NC(=O)[C@@H](NC(=O)[C@H](CCCNC(=N)N)NC(=O)[C@H](CC(=O)O)NC(=O)[C@H](CCCCNC(=O)COCCOCCNC(=O)COCCOCCNC(=O)CC[C@H](NC(=O)CCCCCCCCCCCCCCCCC(=O)O)C(=O)O)NC(=O)C(C)(C)NC(=O)[C@@H](NC(=O)[C@H](CO)NC(=O)[C@H](CC(C)C)NC(=O)[C@H](CC(=O)O)NC(=O)[C@H](CO)NC(=O)[C@@H](NC(=O)[C@H](Cc1ccccc1)NC(=O)[C@@H](NC(=O)CNC(=O)[C@H](CCC(=O)O)NC(=O)C(C)(C)NC(=O)[C@@H](N)Cc1ccc(O)cc1)[C@@H](C)O)[C@@H](C)CC)[C@@H](C)CC)[C@@H](C)CC)C(=O)N[C@@H](CCC(=O)O)C(=O)N[C@@H](Cc1c[nH]c2ccccc12)C(=O)N[C@@H](CC(C)C)C(=O)N[C@@H](CC(C)C)C(=O)N[C@@H](C)C(=O)N[C@@H](CCC(N)=O)C(=O)N[C@@H](CCC(=O)O)C(=O)NCC(=O)O [SEQ ID NO: 14, H2N-Y-Aib-E-G-T-F-I-S-D-L-S-I-Aib-K[{AEEA}2-gGlu-C18OH]-D-R-I-H-Q-E-E-F-I-E-W-L-L-A-Q-E-G-OH] (H-Y[Aib]EGTFISDLSI[Aib]K([AEEA-AEEA-γGlu-C18 diacid])DRIHQEEFIEWLLAQEG-OH)
EC50 [1]: 0.0757 nM

CC[C@H](C)[C@H](NC(=O)[C@H](Cc1ccccc1)NC(=O)[C@H](CCC(=O)O)NC(=O)[C@H](CCC(=O)O)NC(=O)[C@H](CCC(N)=O)NC(=O)[C@H](Cc1c[nH]cn1)NC(=O)[C@@H](NC(=O)[C@H](CCCNC(=N)N)NC(=O)[C@H](CC(=O)O)NC(=O)[C@H](CCCCNC(=O)COCCOCCNC(=O)COCCOCCNC(=O)CC[C@H](NC(=O)CCCCCCCCCCCCCCCCC(=O)O)C(=O)O)NC(=O)C(C)(C)NC(=O)[C@@H](NC(=O)[C@H](CO)NC(=O)[C@H](CCC(C)C)NC(=O)[C@H](CC(=O)O)NC(=O)[C@H](CO)NC(=O)[C@@H](NC(=O)[C@H](Cc1ccccc1)NC(=O)[C@@H](NC(=O)CNC(=O)[C@H](CCC(=O)O)NC(=O)C(C)(C)NC(=O)[C@@H](N)Cc1ccc(O)cc1)[C@@H](C)O)[C@@H](C)CC)[C@@H](C)CC)[C@@H](C)CC)C(=O)N[C@@H](CCC(=O)O)C(=O)N[C@@H](Cc1c[nH]c2ccccc12)C(=O)N[C@@H](CC(C)C)C(=O)N[C@@H](CC(C)C)C(=O)N[C@@H](C)C(=O)N[C@@H](CCC(N)=O)C(=O)NCC(=O)N1CCC[C@H]1C(=O)N[C@@H](CO)C(=O)N[C@@H](CO)C(=O)NCC(=O)N[C@@H](C)C(=O)N1CCC[C@H]1C(=O)N1CCC[C@H]1C(=O)N1CCC[C@H]1C(=O)N[C@@H](CO)C(N)=O [SEQ ID NO: 34, H2N-Y-Aib-E-G-T-F-I-S-D-Hol-S-I-Aib-K[{AEEA}2-gGlu-C18OH]-DRIHQEEFIEWLLAQGPSSGAPPPS-NH2] (H-Y[Aib]EGTFISD[hLeu]SI[Aib]K([AEEA-AEEA-γGlu-C18 diacid])DRIHQEEFIEWLLAQGPSSGAPPPS-NH2)
Soluble amount ([2]; 24 h, pH 7.4): >8.7 mg/mL
solubility at 24 h ([2]; pH 7.4, Soluble amount): > 9200 µg/mL
IC50 [3]: 0.3 nM
EC50 [4]: > 10 nM
EC50 (human GIP receptor [5]; read-out: hGIPR EC50): 0.5 nM
Emax (human GIP receptor [5]; read-out: hGIPR Emax): 112%

B1: SEQ ID NO: 35 (peptide)
peptide: Y[Aib]EGTFISDLSI[Aib]K([AEEA-AEEA-γGlu-C18 diacid])DRIHQEEFIQWLLAQGPSSGAPPPS-NH2
modifications: N-terminus assumed
SMILES: CC[C@H](C)[C@H](NC(=O)[C@H](Cc1ccccc1)NC(=O)[C@H](CCC(=O)O)NC(=O)[C@H](CCC(=O)O)NC(=O)[C@H](CCC(N)=O)NC(=O)[C@H](Cc1c[nH]cn1)NC(=O)[C@@H](NC(=O)[C@H](CCCNC(=N)N)NC(=O)[C@H](CC(=O)O)NC(=O)[C@H](CCCCNC(=O)COCCOCCNC(=O)COCCOCCNC(=O)CC[C@H](NC(=O)CCCCCCCCCCCCCCCCC(=O)O)C(=O)O)NC(=O)C(C)(C)NC(=O)[C@@H](NC(=O)[C@H](CO)NC(=O)[C@H](CC(C)C)NC(=O)[C@H](CC(=O)O)NC(=O)[C@H](CO)NC(=O)[C@@H](NC(=O)[C@H](Cc1ccccc1)NC(=O)[C@@H](NC(=O)CNC(=O)[C@H](CCC(=O)O)NC(=O)C(C)(C)NC(=O)[C@@H](N)Cc1ccc(O)cc1)[C@@H](C)O)[C@@H](C)CC)[C@@H](C)CC)[C@@H](C)CC)C(=O)N[C@@H](CCC(N)=O)C(=O)N[C@@H](Cc1c[nH]c2ccccc12)C(=O)N[C@@H](CC(C)C)C(=O)N[C@@H](CC(C)C)C(=O)N[C@@H](C)C(=O)N[C@@H](CCC(N)=O)C(=O)NCC(=O)N1CCC[C@H]1C(=O)N[C@@H](CO)C(=O)N[C@@H](CO)C(=O)NCC(=O)N[C@@H](C)C(=O)N1CCC[C@H]1C(=O)N1CCC[C@H]1C(=O)N1CCC[C@H]1C(=O)N[C@@H](CO)C(N)=O
notes: Synthetic peptide, 39 residues (Gln at 24)
hGIPR EC50 (cAMP, human adipocytes) (human GIP receptor [6]): 1.3 nM
hGIPR Emax (cAMP, human adipocytes) (human GIP receptor [6]): 120%
EC50 hGIPR 0% HSA (cAMP, HEK-293) (human GIP receptor [7]): 0.00024 nM
EC50 hGIPR 0.1% BSA (cAMP, HEK-293) (human GIP receptor [7]): 0.0107 nM
EC50 hGLP-1R 0.1% BSA (cAMP, HEK-293) (human GLP-1 receptor): > 10 nM
